Source: US10800789B2, “Antiviral compounds” (Gilead Pharmasset LLC, priority 2012, dated 2020)
Where two headings read alike, the source gives them in different places.

How the values were obtained:
[1] = system: NS5A chimeric genotype 2a JFH-1 replicon with genotype 2b MD2b-1 strain NS5A gene (M31 present); assay: Replicon assay, genotype 2b NS5A chimera; format: cell-based, HCV; conditions: Hepatitis C virus
How it was run: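 EC50 was fitted by non-linear regression to Renilla luciferase signal after 72 h of exposure to 3-fold serially diluted compound (10 mM DMSO stocks). Controls were DMSO (none) and ITMN-191 above 100×EC50 (full). Chimeric 2a replicons were used either stable or transiently transfected into Huh-Lunet cells.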

[2] = system: NS5A chimeric genotype 1b Con1 replicon with genotype 4a ED43 strain NS5A gene; assay: Replicon assay, genotype 4a NS5A chimera; format: cell-based, HCV; conditions: Hepatitis C virus
[3] = system: stable HCV 1a RLuc replicon cells (dicistronic genotype 1a H77 replicon); assay: Renilla luciferase HCV replicon reporter assay, genotype 1a; format: cell-based; conditions: Hepatitis C virus, 72 h, stable 1a H77 RLuc replicon cells
How it was run: (§1)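 72 h compound exposure (3-fold dilutions from 10 mM DMSO stocks) of replicon cells: stable dicistronic RLuc 1a H77, 1b Con1, 2a JFH-1 (NS5A L31); J6-NS5A chimera in JFH-1 (M31), transient in Huh-Lunet or stable. Renilla luciferase read-out, non-linear regression → EC50. DMSO negative control.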

[4] = system: NS5A chimeric genotype 2a JFH-1 replicon with genotype 2a J6 strain NS5A gene (M31 present); assay: Replicon assay, genotype 2a J6 NS5A chimera; format: cell-based, HCV; conditions: Hepatitis C virus
How it was run: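 First, 3-fold serial dilutions of compound went onto replicon cells, DMSO serving as no-inhibition control and ITMN-191 at >100×EC50 as positive control. Next came 72 h incubation, lysis and Renilla luciferase measurement. Finally, EC50 was calculated by non-linear regression; replicons covered genotypes 1a H77, 1b Con1, 2a JFH-1 (L31) and J6-NS5A chimera (M31).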

[5] = system: Q30R in genotype 1a NS5A (1a Pi-Rluc replicon, Huh-7-derived cured-51 cells); assay: Replicon assay against resistance mutant 1a Q30R; format: cell-based, HCV; conditions: Hepatitis C virus
Procedure: Antiviral potency (EC50) was determined using a Renilla luciferase (RLuc)-based HCV replicon reporter assay. To perform the assay for genotype 1 and 2a JFH-1, stable HCV 1a RLuc replicon cells (harboring a dicistronic genotype 1a H77 replicon that encodes a RLuc reporter), stable HCV 1b RLuc replicon cells (harboring a dicistronic genotype 1b Con1 replicon that encodes a RLuc reporter), or stable HCV 2a JFH-1 Rluc replicon cells (harboring a dicistronic genotype 2a JFH-1 replicon that encodes a RLuc reporter; with L31 present in NS5A) were dispensed into 384-well plates for EC50 assays. To perform the assay for genotype 2a (with M31 present in NS5A) or 2b, NS5A chimeric genotype 2a JFH-1 replicons that encodes a RLuc-Neo reporter and either genotype 2a J6 strain NS5A gene or genotype 2b MD2b-1 strain NS5A gene (both with M31 present) respectively, were either transiently transfected (t) into Huh-Lunet cells or were established as stably replicating replicon cells (s) is provided. Either cells were dispensed into 384-well plates for EC50 assays. To perform the assay for genotype 3 and 4, NS5A chimeric genotype 1b Con1 replicons that encodes a Pi-RLuc reporter and either genotype 3a S52 strain NS5A gene or genotype 4a ED43 strain NS5A gene respectively, were transiently transfected (t) into Huh-Lunet cells, which were subsequently dispensed into 384-well plates. Compounds were dissolved in DMSO at a concentration of 10 mM and diluted in DMSO either manually or using an automated pipeting instrument. Serially 3-fold diluted compounds were either manually mixed with cell culture media and added to the seeded cells or directly added to the cells using an automated instrument. DMSO was used as a negative (solvent; no inhibition) control, and the protease inhibitor ITMN-191 was included at a concentration>100×EC50 as a positive control. 72 hours later, cells were lysed and Renilla luciferase activity quantified as recommended by the manufacturer (Promega-Madison, Wis.). Non-linear regression was performed to calculate EC50 values.
To determine the antiviral potency (EC50) against resistance mutants, resistance mutations, including M28T, Q30R, Q30H, Q30E, L31M, Y93C, Y93H, and Y93N in genotype 1a NS5A, Y93H and L31V/Y93H in genotype 1b NS5A, and Y93H for in genotype 3a NS5A, were introduced individually into either 1a Pi-Rluc or 1b Pi-Rluc replicons by site directed mutagenesis. Replicon RNA of each resistant mutant was transiently transfected into Huh-7-derived cured-51 cells and antiviral potency was determined on these transfected cells as described above.

[6] = system: stable HCV 2a JFH-1 Rluc replicon cells (L31 present in NS5A); assay: Renilla luciferase HCV replicon reporter assay, genotype 2a JFH-1; format: cell-based; conditions: Hepatitis C virus
How it was run: as §1

[7] = system: NS5A chimeric genotype 1b Con1 replicon with genotype 3a S52 strain NS5A gene; assay: Replicon assay, genotype 3a NS5A chimera; format: cell-based, HCV; conditions: Hepatitis C virus
[8] = system: stable HCV 1b RLuc replicon cells (dicistronic genotype 1b Con1 replicon); assay: Renilla luciferase HCV replicon reporter assay, genotype 1b; format: cell-based; conditions: Hepatitis C virus, 72 h, stable 1b Con1 RLuc replicon cells, 72 hours; read-out: 1b
How it was run: as §1

[9] = 2BS, read-out: 2b (s), stably replicating replicon cells (s), activity range
[10] = read-out: 2b (s) (nM), genotype 2b MD2b-1 NS5A chimeric replicon (M31), stably replicating replicon cells (s)
[11] = read-out: 4a (s) (nM), genotype 4a NS5A chimeric replicon, stable replicon cells (s)
[12] = read-out: 4a (s), (s), activity range
[13] = read-out: 2a J6 (t) (nM), genotype 2a J6 NS5A chimeric replicon (M31), transiently transfected (t) into Huh-Lunet cells
[14] = read-out: 2a J6 (t), transiently transfected (t) into Huh-Lunet cells, activity range
[15] = read-out: 2a JFH (nM), genotype 2a JFH-1 replicon (L31 in NS5A), stable cells
[16] = read-out: 2a JFH, stable 2a JFH-1 Rluc replicon cells, L31 in NS5A, activity range
[17] = read-out: 3a (s) (nM), genotype 3a NS5A chimeric replicon, stable replicon cells (s)
[18] = read-out: 3a (s), (s), activity range
[19] = read-out: 3a (t) (nM), genotype 3a NS5A chimeric replicon, transiently transfected (t)
[20] = read-out: 3a (t), transiently transfected (t) into Huh-Lunet cells, activity range

Compound | EC50 [1, 9] | EC50 [1, 10] | EC50 ([1]; read-out: 2b (t) (nM), genotype 2b MD2b-1 NS5A chimeric replicon (M31), transiently transfected (t)) | EC50 ([1]; read-out: 2b (t), transiently transfected (t) into Huh-Lunet cells, activity range) | EC50 [2, 11] | EC50 [2, 12] | EC50 [3] | EC50 ([3]; activity range) | EC50 [4, 13] | EC50 [4, 14] | EC50 ([5]; read-out: 1a Q30R) | EC50 ([5]; read-out: 1a Q30R (nM)) | EC50 [6, 15] | EC50 [6, 16] | EC50 [7, 17] | EC50 [7, 18] | EC50 [8] | EC50 [7, 19] | EC50 [7, 20]
COC[C@H]1C[C@@H](c2ncc(-c3ccc4c(c3)c(=O)oc3cc5c(ccc6nc([C@@H]7CC[C@H](C)N7C(=O)[C@@H](NC(=O)OC)C(C)C)[nH]c65)cc34)[nH]2)N(C(=O)[C@H](NC(=O)OC)c2ccccc2)C1 [GK, methyl {(1R)-2-[(2S,4S)-2-(5-{2-[(2S,5S)-1-{(2S)-2-[(methoxycarbonyl)amino]-3-methylbutanoyl}-5-methylpyrrolidin-2-yl]-11-oxo-1,11-dihydroisochromeno[4′,3′:6,7]naphtho[1,2-d]imidazol-9-yl}-1H-imidazol-2-yl)-4-(methoxymethyl)pyrrolidin-1-yl]-2-oxo-1-phenylethyl}carbamate] | 0.1 to 0.999 nM | 0.187 nM | 0.087 nM | < 0.1 nM | 0.028 nM | < 0.1 nM | 0.031 nM | < 0.1 nM | 0.071 nM | < 0.1 nM | 0.1 to 0.999 nM | 0.111 nM | 0.024 nM | < 0.1 nM | 0.156 nM | 0.1 to 0.999 nM | 0.036 nM |  | 
COC(=O)N[C@H](C(=O)N1[C@@H](C)CC[C@H]1c1nc(C)c(-c2ccc3c(c2)COc2cc4c(ccc5nc([C@@H]6CC[C@H](C)N6C(=O)[C@@H](NC(=O)OC)[C@@H](C)OC)[nH]c54)cc2-3)[nH]1)[C@@H](C)OC [GD, Methyl [(2S,3R)-3-methoxy-1-{(2S,5S)-2-[9-(2-{(2S,5S)-1-[N-(methoxycarbonyl)-O-methyl-L-threonyl]-5-methylpyrrolidin-2-yl}-4-methyl-1H-imidazol-5-yl)-1,11-dihydroisochromeno[4′,3′:6,7]naphtho[1,2-d]imidazol-2-yl]-5-methylpyrrolidin-1-yl}-1-oxobutan-2-yl]carbamate] | < 0.1 nM | 0.09 nM |  |  | 0.018 nM | < 0.1 nM | 0.019 nM | < 0.1 nM | 0.04 nM | < 0.1 nM | 0.1 to 0.999 nM | 0.105 nM | 0.035 nM | < 0.1 nM | 0.07 nM | < 0.1 nM | 0.027 nM | 0.042 nM | < 0.1 nM
CC[C@H]1C[C@@H](c2nc3ccc4cc5c(cc4c3[nH]2)OCc2cc(-c3cnc([C@@H]4CC[C@H](C)N4C(=O)[C@@H](NC(=O)OC)C(C)C)[nH]3)ccc2-5)N(C(=O)[C@@H](NC(=O)OC)C2CCOCC2)C1 [GV] | 0.1 to 0.999 nM | 0.112 nM |  |  | 0.016 nM | < 0.1 nM | 0.018 nM | < 0.1 nM | 0.012 nM | < 0.1 nM | < 0.1 nM | 0.061 nM | 0.008 nM | < 0.1 nM | 0.042 nM | < 0.1 nM | 0.027 nM |  | 
COC[C@H](NC(=O)OC)C(=O)N1[C@@H](C)CC[C@H]1c1nc2ccc3cc4c(cc3c2[nH]1)OCc1cc(-c2cnc([C@@H]3CC[C@H](C)N3C(=O)[C@@H](NC(=O)OC)C(C)C)[nH]2)ccc1-4 [FE, Methyl [(2S)-1-{(2S,5S)-2-[5-(2-{(2S,5S)-1-[N-(methoxycarbonyl)-O-methyl-L-seryl]-5-methylpyrrolidin-2-yl}-1,11-dihydroisochromeno[4′,3′:6,7]naphtho[1,2-d]imidazol-9-yl)-1H-imidazol-2-yl]-5-methylpyrrolidin-1-yl}-3-methyl-1-oxobutan-2-yl]carbamate] | 0.1 to 0.999 nM | 0.463 nM |  |  | 0.012 nM | < 0.1 nM | 0.012 nM | < 0.1 nM | 0.122 nM | 0.1 to 0.999 nM | 0.1 to 0.999 nM | 0.253 nM | 0.016 nM | < 0.1 nM | 0.072 nM | < 0.1 nM | 0.015 nM |  | 
COC[C@H]1C[C@@H](c2ncc(-c3ccc4c(c3)COc3cc5c(ccc6nc([C@@H]7C[C@H](COC)CN7C(=O)[C@H](NC(=O)OC)c7ccccc7)[nH]c65)cc3-4)[nH]2)N(C(=O)[C@H](NC(=O)OC)c2ccccc2)C1 [EY, Methyl {(1R)-2-[(2S,4S)-2-(5-{2-[(2S,4S)-1-{(2R)-2-[(methoxycarbonyl)amino]-2-phenylacetyl}-4-(methoxymethyl)pyrrolidin-2-yl]-1,11-dihydroisochromeno[4′,3′:6,7]naphtho[1,2-d]imidazol-9-yl}-1H-imidazol-2-yl)-4-(methoxymethyl)pyrrolidin-1-yl]-2-oxo-1-phenylethyl}carbamate] | < 0.1 nM | 0.035 nM |  |  | 0.025 nM | < 0.1 nM | 0.029 nM | < 0.1 nM | 0.008 nM | < 0.1 nM | < 0.1 nM | 0.057 nM | 0.029 nM | < 0.1 nM | 0.087 nM | < 0.1 nM | 0.049 nM | 0.118 nM | 0.1 to 0.999 nM
